Here are results for eleven compounds from patent publication US20150342960A1, “DRUG COMBINATIONS FOR TREATMENT OF MELANOMA AND OTHER CANCERS” (Memorial Sloan Kettering Cancer Center, priority 2014, published 2015).

Read-outs that look alike come from different tables or passages of the source.

What all share (type): cell-based
The subject of one test is 4EBP1pS65. Put plainly: Western blot IC40 of downstream effector readout. Conditions: 40% inhibition of 4EBP1pS65, Western Blot. Here is the method: (§1) In total, cells were treated with 89 unique perturbations (Table 3). In paired combinations, each drug concentration was selected to inhibit the readout for the presumed target or the downstream effectors by 40% (IC40) as determined by Western Blot experiments. In single agent perturbations, each drug is applied at two different concentrations, IC40 and 2×IC40.
In general terms: Immunoblotting shows a protein as a band on a membrane.

In test [1] the test system is c-Myc. Put plainly: c-Myc level by reverse phase protein arrays (RPPA). As to conditions: Skmel133 cells, average of three replicates. Here is the method: Proteomic response profiles to perturbations were measured using reverse phase protein arrays. The cells were lysed 24 hours after drug treatment. Three biological replicates were spotted for each sample (e.g., drug condition) on RPPA slides. Each slide was stained with the respective Ab and 138 proteomic entities (total or phosho levels) and were profiled using specific Abs with the RPPA (Table 3).
FIG. 14 depicts changes in c-Myc levels in response to perturbations in Skmel133 cells as measured in RPPA experiments. Each data point was log normalized with respect to the c-Myc level in unperturbed condition. c-Myc level was highest in the presence of CDK4i. Various drug combinations that included STAT3 and mTOR inhibitors follow CDK4i combinations. cMyc level was lowest when cells were perturbed with MEK, BRAF, SRC, PKC and HDAC inhibitors, respectively. Each data-point is the average of RPPA readouts from three replicates.

In the next test the test system is MAPK1pT202. Kind of test: Western blot IC40 of downstream effector readout. As to conditions: 40% inhibition of MAPK1pT202, Western Blot. Here is the method: as §1
Test [2] has as its system SkMel133 cells. Put plainly: Cell cycle progression, flow cytometry. As to conditions: for cells in G1 stage: 24 hours after treatment, 39% when not treated. The procedure:
All phenotypic measurements were made in perturbation conditions identical to those in proteomic measurements. […] The percentage of cells in the G1, G2/M, and S phases and sub-G1 fraction were recorded based on the respective distribution of DNA content in each phase.
Background: In flow cytometry, cells or beads pass a laser one at a time.

In test [3] the test system is SkMel133 cells. Put plainly: Cell viability, resazurin assay. As to conditions: for Emax: read-out: maximal effect level (Amax, response to the drugs at highest doses). Here is the method: RAFi resistant melanoma cell line SkMel133 was used in all perturbation experiments. SkMel133 cells were perturbed with 12 targeted drugs applied as single agents or in paired combinations.
All phenotypic measurements were made in perturbation conditions identical to those in proteomic measurements. Cell viability and cell cycle progression were measured 72 hours after drug treatment using the Resazurin assay and flow cytometry analysis respectively. The percentage of cells in the G1, G2/M, and S phases and sub-G1 fraction were recorded based on the respective distribution of DNA content in each phase.
(Alamar Blue is a resazurin reagent that responds to reducing activity.)

A further test concerns S6pS240. Kind of test: Western blot IC40 of downstream effector readout. As to conditions: 40% inhibition of S6pS240, Western Blot. Here is the method: as §1
For the next test, the system named is STAT3pY705. Kind of test: Western blot IC40 of downstream effector readout. Conditions: 40% inhibition of STAT3pY705, Western Blot. The procedure: as §1
In a further test the test system is AKTpS473. Put plainly: Western blot IC40 of downstream effector readout. As to conditions: 40% inhibition of AKTpS473, Western Blot. Here is the method: as §1
The test system of another test is P27/Kip1. Put plainly: Western blot IC40 of downstream effector readout. As to conditions: IC40 on P27/Kip1 readout. Here is the method: as §1
Another test relates to GSK3pS21. Kind of test: Western blot IC40 of downstream effector readout. As to conditions: 40% inhibition of GSK3pS21, Western Blot. Here is the method: as §1
Test [4] relates to SkMel133 cells. Put plainly: Apoptotic response of melanoma cells. As to conditions: 48 hours after treatment; 3% in unperturbed cells. Here is the method:
Finally, the cell cycle progression and apoptotic response of melanoma cells to JQ1 were measured. JQ1 (500 nM) induces a 50% increase in cells at G1-phase compared to the unperturbed cells (FIG. 8). […] More specifically, FIG. 8 depicts cell cycle arrest response of melanoma cells to JQ1 and MEKi combination. 51% and 88% of cells are in G1 stage 24 hours after JQ1 and MEKi treatment, respectively. JQ1+MEKi combination has an increased effect on G1 cell cycle arrest (G1=92%). 39% of cells are in G1 when they are not treated with drugs (error bars in right panel: ±SE in 3 biological replicates).

The next test has as its system BRD4. Put plainly: Western blot of BRD4 level. As to conditions: 24 hours after JQ1 treatment. The procedure:
FIGS. 6A-6E illustrate the combined targeting of c-Myc with MEK and BRAF leads to synergistic response in melanoma cells. […] The leftward shift of isocurves implies synergistic interactions between the applied perturbations. u denotes strength of in silico perturbations. […] The BRD4 level is unchanged in response to JQ1 treatment. […] C-Myc expression is targeted with BRD4 inhibitor, JQ1. […] Cell viability is measured using the resazurin assay. […] The combination index (CI) calculated using the drug dose response curves quantifies the drug interactions between JQ1, MEKi and RAFi (left panel). CI for a given level of inhibition is a measure of the fractional shift between the combination doses (C1 and C2) and the single agent's inhibitory concentration (Cx,1, Cx,2). It is formulated as CI=(C1/Cx,1)[…](C2/Cx,2). Amax is the response of melanoma cells to JQ1, MEKi and RAFi at highest doses applied (right panel). 1-Amax is the fraction of cells alive in response to highest drug dose normalized with respect to the non-drug treated condition. […] 86% of cells are in G1 state 48 hours after JQ1 treatment, while 42% of the cells are in G1 state before drug treatment (error bars: ±SEM in 3 biological replicates).

Test [5] relates to c-Myc. Put plainly: Western blot of c-Myc expression. Conditions: SkMel133, western blot, 24 hours after drug treatment. An excerpt: First, it was postulated whether c-Myc levels in SkMel133 cells could be targeted using JQ1. […] Therefore, total c-Myc levels are targeted using JQ1, either as a single agent or in combination with inhibitors of the RAF/MEK/ERK pathway.
[6] abbreviates: SkMel133, highest doses applied, normalized to non-drug treated condition.

For `COc1ccc(C2=NC(c3ccc(Cl)cc3)C(c3ccc(Cl)cc3)N2C(=O)N2CCNC(=O)C2)c(OC(C)C)c1` (stereo not shown) [Nutlin], the “Dose 1 (IC40 of downstream effector readout)” value in the test with 4EBP1pS65 is reported as 3,000 nM.
As to `O=C(NOC[C@H](O)CO)c1ccc(F)c(F)c1Nc1ccc(I)cc1F` [PD0325901], the “c-Myc level relative to unperturbed condition” value in the test with c-Myc [1] is listed as “lowest”. The “Dose 1 (IC40 of downstream effector readout)” value with MAPK1pT202 was found to be 1.5 nM. Besides, the “cells in G1 stage” value in the test with SkMel133 cells [2] stood at 88%. In the test on SkMel133 cells [3] (setting [6]), the Emax is 13%.
In the case of `Cn1cc(C2=C(c3cn(CCCN)c4ccccc34)C(=O)NC2=O)c2ccccc21` [RO-31-7549], in the test on c-Myc [1], the “c-Myc level relative to unperturbed condition” value is “lowest”. Further, in the test on S6pS240, the “Dose 1 (IC40 of downstream effector readout)” value was 3500 nM.
Regarding `O=[N+]([O-])c1ccc2c(c1)S(=O)(=O)C=C2` [Stattic], the “Dose 1 (IC40 of downstream effector readout)” value in the test with STAT3pY705 turned out to be 600 nM.
Take `FC(F)c1nc2ccccc2n1-c1nc(N2CCOCC2)nc(N2CCOCC2)n1` [ZSTK474]: in the test on AKTpS473, the “Dose 1 (IC40 of downstream effector readout)” value stood at 600 nM.
With `O=C(CCCCCCSc1ccc2ccccc2c1)NO` [HNHA], in the test with c-Myc [1], the “c-Myc level relative to unperturbed condition” value is “lowest”. In the test on P27/Kip1, the “Dose 1 (IC40 of downstream effector readout)” value is 6,000 nM.
Regarding `CCCS(=O)(=O)Nc1ccc(F)c(C(=O)c2c[nH]c3ncc(Cl)cc23)c1F` [PLX4720], the “c-Myc level relative to unperturbed condition” value in the test with c-Myc [1] is recorded as “lowest”. In addition, the “Dose 1 (IC40 of downstream effector readout)” value with MAPK1pT202 is 60 nM. Besides, the IC50 was over 1000 nM in the test on SkMel133 cells [3] (RAFi resistant SkMel133 cells, single agent, read-out: IC50 for single agent) and 120 nM in the test on SkMel133 cells [3] (SkMel133, combined with JQ1 (120 nM), read-out: concentration of RAFi reducing cell viability by 50%). Also, the Emax in the test on SkMel133 cells [3] (setting [6]) was 12%.
For the compound `CC(C)(C)c1nc2c3cc[nH]c(=O)c3c3cc(F)ccc3c2[nH]1` [P6], in the test on GSK3pS21, the “Dose 1 (IC40 of downstream effector readout)” value is 20 nM.
With `Cc1sc2c(c1C)C(c1ccc(Cl)cc1)=N[C@@H](CC(=O)OC(C)(C)C)c1nnc(C)n1-2` [JQ1], in the test with SkMel133 cells [4], the apoptosis was found to be 11%. In the test with BRD4, the BRD4 level entry was “unchanged”. Moreover, in the test on c-Myc [5], the c-Myc expression entry is reported as “reduced”. Also, the “cells in G1 stage” value in the test on SkMel133 cells [2] was determined as 51%. In the test on SkMel133 cells [2] (48 hours after treatment, 42% before drug treatment), the “cells in G1 state” value stood at 86%. In the test with SkMel133 cells [2] (JQ1 500 nM), the “increase in cells at G1-phase compared to the unperturbed cells” value was 50%. For the same compound, the IC50 came out at 100 nM in the test on SkMel133 cells [3] (SkMel133, combined with 5 nM MEK inhibitor, read-out: concentration of JQ1 reducing viability by 50%) and 200 nM in the test with SkMel133 cells [3] (SkMel133, single agent, read-out: cell viability IC50). In the test on SkMel133 cells [3] (setting [6]), the “maximal effect level (Amax, response to the drugs at highest doses)” value is listed as 10%.
With `O=c1[nH]c2ccccc2n1C1CCN(Cc2ccc(-c3nc4cc5nc[nH]c5cc4nc3-c3ccccc3)cc2)CC1` [AKTi 1/2], the “Dose 1 (IC40 of downstream effector readout)” value in the test with AKTpS473 was 5.000 nM.
In the case of `CO[C@H]1C[C@@H]2CC[C@@H](C)[C@@](O)(O2)C(=O)C(=O)N2CCCC[C@H]2C(=O)O[C@H]([C@H](C)C[C@@H]2CC[C@@H](OC(=O)C(C)(CO)CO)[C@H](OC)C2)CC(=O)[C@H](C)/C=C(\C)[C@@H](O)[C@@H](OC)C(=O)[C@H](C)C[C@H](C)/C=C/C=C/C=C/1C` [Temsirolimus], the “Dose 1 (IC40 of downstream effector readout)” value in the test with S6pS240 is 0.3 nM.
